{"source": "paper PMC5218480", "about": "(PLoS ONE, 2017)", "test_system": "MV-4-11 cells", "test": "Gene expression microarray analysis (Affymetrix PrimeView) and GSEA", "type": "cell-based, human", "parameters": "RFU PODN (11730768_x_at) / Fold change /veh PODN (11730768_x_at) / RFU LINC00158 (11744669_a_at) / Fold change /veh LINC00158 (11744669_a_at) / RFU DUSP10 (11751237_a_at) / Fold change /veh DUSP10 (11751237_a_at) / RFU ID3 (11757404_x_at) / Fold change /veh ID3 (11757404_x_at) / RFU PLEKHG5 (11737974_s_at) / Fold change /veh PLEKHG5 (11737974_s_at) / RFU LRRC4B (11730491_at) / Fold change /veh LRRC4B (11730491_at) / RFU GIMAP4 (11747438_a_at) / Fold change /veh GIMAP4 (11747438_a_at) / RFU KRT8 (11758183_x_at) / Fold change /veh KRT8 (11758183_x_at) / RFU CNN1 (11734310_a_at) / Fold change /veh CNN1 (11734310_a_at) / RFU VPS37D (11726825_at) / Fold change /veh VPS37D (11726825_at) / RFU C10orf10 (11716522_x_at) / Fold change /veh C10orf10 (11716522_x_at) / RFU KIR2DL2 /// KIR2DL4 /// KIR2DL5A /// KIR2DL5B /// KIR2DS1 /// KIR2DS2 /// KIR2DS3 /// KIR2DS4 /// KIR3DL3 /// KIR3DL3 /// KIR3DS1 (11738374_at) / Fold change /veh KIR2DL2 /// KIR2DL4 /// KIR2DL5A /// KIR2DL5B /// KIR2DS1 /// KIR2DS2 /// KIR2DS3 /// KIR2DS4 /// KIR3DL3 /// KIR3DL3 /// KIR3DS1 (11738374_at) / RFU C1QL1 (11718748_at) / Fold change /veh C1QL1 (11718748_at) / RFU TMPRSS4 (11747572_a_at) / Fold change /veh TMPRSS4 (11747572_a_at) / RFU HAMP (11756126_x_at) / Fold change /veh HAMP (11756126_x_at) / RFU RNFT2 (11725882_a_at) / Fold change /veh RNFT2 (11725882_a_at) / RFU NR4A2 (11747474_a_at) / Fold change /veh NR4A2 (11747474_a_at) / RFU ABCC12 (11746883_a_at) / Fold change /veh ABCC12 (11746883_a_at) / RFU TMEM136 (11760407_x_at) / Fold change /veh TMEM136 (11760407_x_at) / RFU CLDN22 /// WWC2 (11732394_at) / Fold change /veh CLDN22 /// WWC2 (11732394_at) / RFU HLA-DPB1 (11760878_x_at) / Fold change /veh HLA-DPB1 (11760878_x_at) / RFU SPINT1 (11716480_a_at) / Fold change /veh SPINT1 (11716480_a_at) / RFU GAP43 (11754022_s_at) / Fold change /veh GAP43 (11754022_s_at) / RFU A4GNT (11735810_at) / Fold change /veh A4GNT (11735810_at) / RFU PRB3 (11715151_x_at) / Fold change /veh PRB3 (11715151_x_at) / RFU TUBB4B (11761932_at) / Fold change /veh TUBB4B (11761932_at) / RFU CAPN14 (11732068_a_at) / Fold change /veh CAPN14 (11732068_a_at) / RFU TMCC2 (11721928_a_at) / Fold change /veh TMCC2 (11721928_a_at) / RFU IRGQ (11745062_a_at) / Fold change /veh IRGQ (11745062_a_at) / RFU FAM174B (11720279_a_at) / Fold change /veh FAM174B (11720279_a_at) / RFU TMPRSS4 (11748680_a_at) / Fold change /veh TMPRSS4 (11748680_a_at) / RFU FAM212B (11763350_a_at) / Fold change /veh FAM212B (11763350_a_at) / RFU PLEKHG5 (11743358_a_at) / Fold change /veh PLEKHG5 (11743358_a_at) / RFU ZSCAN30 (11745921_a_at) / Fold change /veh ZSCAN30 (11745921_a_at) / RFU CMKLR1 (11741424_a_at) / Fold change /veh CMKLR1 (11741424_a_at) / RFU LOC101060620 /// MAPK8IP1 (11723275_at) / Fold change /veh LOC101060620 /// MAPK8IP1 (11723275_at) / RFU SPTSSB (11747773_x_at) / Fold change /veh SPTSSB (11747773_x_at) / RFU PRSS12 (11739890_at) / Fold change /veh PRSS12 (11739890_at) / RFU BIN1 (11741810_x_at) / Fold change /veh BIN1 (11741810_x_at) / RFU WNT11 (11732464_a_at) / Fold change /veh WNT11 (11732464_a_at) / RFU C10orf10 (11716521_a_at) / Fold change /veh C10orf10 (11716521_a_at) / RFU C5orf56 (11738089_at) / Fold change /veh C5orf56 (11738089_at) / RFU CYB561 (11721691_x_at) / Fold change /veh CYB561 (11721691_x_at) / RFU ANKRD19P (11752326_a_at) / Fold change /veh ANKRD19P (11752326_a_at) / RFU OR2T12 /// OR2T33 /// OR2T8 (11738714_s_at) / Fold change /veh OR2T12 /// OR2T33 /// OR2T8 (11738714_s_at) / RFU VCAN (11748164_a_at) / Fold change /veh VCAN (11748164_a_at) / RFU JSRP1 (11732532_at) / Fold change /veh JSRP1 (11732532_at) / RFU KRTAP10-11 (11738290_x_at) / Fold change /veh KRTAP10-11 (11738290_x_at) / RFU MYO3A (11730013_a_at) / Fold change /veh MYO3A (11730013_a_at) / RFU EBF3 (11725865_a_at) / Fold change /veh EBF3 (11725865_a_at) / RFU CAMK2N1 (11719241_x_at) / Fold change /veh CAMK2N1 (11719241_x_at) / RFU C5orf56 (11738088_a_at) / Fold change /veh C5orf56 (11738088_a_at) / RFU OLFML3 (11715873_a_at) / Fold change /veh OLFML3 (11715873_a_at) / RFU LOC100653217 /// NTM (11731650_a_at) / Fold change /veh LOC100653217 /// NTM (11731650_a_at) / RFU MAPK11 (11762145_a_at) / Fold change /veh MAPK11 (11762145_a_at) / RFU FIZ1 (11724087_x_at) / Fold change /veh FIZ1 (11724087_x_at) / RFU OASL (11726364_x_at) / Fold change /veh OASL (11726364_x_at) / RFU SOX15 (11748057_x_at) / Fold change /veh SOX15 (11748057_x_at) / RFU CD79A (11719716_a_at) / Fold change /veh CD79A (11719716_a_at) / RFU HIST1H1D (11736915_at) / Fold change /veh HIST1H1D (11736915_at) / RFU CASKIN2 (11723855_a_at) / Fold change /veh CASKIN2 (11723855_a_at) / RFU LOC730098 (11760151_x_at) / Fold change /veh LOC730098 (11760151_x_at) / RFU OR4N2 (11742367_at) / Fold change /veh OR4N2 (11742367_at) / RFU PRRT2 (11749266_a_at) / Fold change /veh PRRT2 (11749266_a_at) / RFU SNX32 (11753110_a_at) / Fold change /veh SNX32 (11753110_a_at) / RFU CDHR5 (11726645_a_at) / Fold change /veh CDHR5 (11726645_a_at) / RFU RCAN1 (11760418_a_at) / Fold change /veh RCAN1 (11760418_a_at) / RFU FAM167A (11723789_a_at) / Fold change /veh FAM167A (11723789_a_at) / RFU FAM26E (11764081_at) / Fold change /veh FAM26E (11764081_at) / RFU ISYNA1 (11749810_s_at) / Fold change /veh ISYNA1 (11749810_s_at) / RFU ACY1 (11761880_at) / Fold change /veh ACY1 (11761880_at) / RFU 11764098_at / Fold change /veh 11764098_at / RFU SAMD14 (11745864_x_at) / Fold change /veh SAMD14 (11745864_x_at) / RFU NPB (11741838_a_at) / Fold change /veh NPB (11741838_a_at) / RFU TMPRSS6 (11731388_a_at) / Fold change /veh TMPRSS6 (11731388_a_at) / RFU KRTAP10-2 (11738614_at) / Fold change /veh KRTAP10-2 (11738614_at) / RFU ARHGAP8 /// PRR5-ARHGAP8 (11727945_x_at) / Fold change /veh ARHGAP8 /// PRR5-ARHGAP8 (11727945_x_at) / RFU KRTAP5-7 /// NADSYN1 (11734609_at) / Fold change /veh KRTAP5-7 /// NADSYN1 (11734609_at) / RFU RASL12 (11751679_a_at) / Fold change /veh RASL12 (11751679_a_at) / RFU CDKN2B (11736163_a_at) / Fold change /veh CDKN2B (11736163_a_at) / RFU PRF1 (11729649_at) / Fold change /veh PRF1 (11729649_at) / RFU, ZNF638 /// ZNF638-IT1 / Fold change vs veh, ZNF638 /// ZNF638-IT1 / RFU, PANK3 / Fold change vs veh, PANK3 / RFU, SH3YL1 / Fold change vs veh, SH3YL1 / RFU, ZEB2 / Fold change vs veh, ZEB2 / RFU, NRIP1 / Fold change vs veh, NRIP1 / RFU, PTTG1IP / Fold change vs veh, PTTG1IP / RFU, CAPN2 / Fold change vs veh, CAPN2 / RFU, MED14 / Fold change vs veh, MED14 / RFU, SNORA58 / Fold change vs veh, SNORA58 / RFU, C1orf63 / Fold change vs veh, C1orf63 / RFU, LRRFIP1 / Fold change vs veh, LRRFIP1 / RFU, NDUFAF7 / Fold change vs veh, NDUFAF7 / RFU, SLC12A2 / Fold change vs veh, SLC12A2 / RFU, IBTK / Fold change vs veh, IBTK / RFU, ESF1 / Fold change vs veh, ESF1 / Fold change vs veh, TMEM50B / RFU, TAOK1 / Fold change vs veh, TAOK1 / RFU, ACBD3 / Fold change vs veh, ACBD3 / RFU, TMA16 / Fold change vs veh, TMA16 / RFU, RWDD3 / Fold change vs veh, RWDD3 / RFU, BCAT1 / Fold change vs veh, BCAT1 / RFU, EDEM3 / Fold change vs veh, EDEM3 / RFU, TMEM33 / Fold change vs veh, TMEM33 / RFU, WDR75 / Fold change vs veh, WDR75 / RFU, AHCTF1 / Fold change vs veh, AHCTF1 / RFU, TFRC / Fold change vs veh, TFRC / RFU, ZDHHC17 / Fold change vs veh, ZDHHC17 / RFU, NOM1 / Fold change vs veh, NOM1 / RFU, ARL8B / Fold change vs veh, ARL8B / RFU, ZBTB11 / Fold change vs veh, ZBTB11 / RFU, TAMM41 / Fold change vs veh, TAMM41 / RFU, KIAA1704 /// LOC100996395 / Fold change vs veh, KIAA1704 /// LOC100996395 / RFU, ING1 / Fold change vs veh, ING1 / RFU, TRMT61B / Fold change vs veh, TRMT61B / RFU, FUBP3 / Fold change vs veh, FUBP3 / RFU, TP53 / Fold change vs veh, TP53 / RFU, TNKS2 / Fold change vs veh, TNKS2 / RFU, ZFP14 / Fold change vs veh, ZFP14 / RFU, ACTR2 / Fold change vs veh, ACTR2 / RFU, PPP3R1 / Fold change vs veh, PPP3R1 / RFU, PIK3R1 / Fold change vs veh, PIK3R1 / RFU, HNRNPA1 / Fold change vs veh, HNRNPA1 / RFU, RNF170 / Fold change vs veh, RNF170 / RFU, ZNF28 / Fold change vs veh, ZNF28 / RFU, RNGTT / Fold change vs veh, RNGTT / RFU, OGT / Fold change vs veh, OGT / RFU, BRD1 / Fold change vs veh, BRD1 / RFU, MARS / Fold change vs veh, MARS / RFU, ZNF655 / Fold change vs veh, ZNF655 / RFU, FAHD1 / Fold change vs veh, FAHD1 / RFU, BDP1 / Fold change vs veh, BDP1 / RFU, LRRCC1 / Fold change vs veh, LRRCC1 / RFU, ARID1A / Fold change vs veh, ARID1A / RFU, ZNF146 / Fold change vs veh, ZNF146 / RFU, ZNF330 / Fold change vs veh, ZNF330 / RFU, GPN3 / Fold change vs veh, GPN3 / RFU, C9orf123 / Fold change vs veh, C9orf123 / RFU, N4BP2L2 / Fold change vs veh, N4BP2L2 / RFU, ARFIP1 / Fold change vs veh, ARFIP1 / RFU, FAM179B / Fold change vs veh, FAM179B / RFU, BCL10 / Fold change vs veh, BCL10 / RFU, UHRF1BP1L / Fold change vs veh, UHRF1BP1L / RFU, BET1 / Fold change vs veh, BET1 / RFU, CNOT2 / Fold change vs veh, CNOT2 / RFU, ZNF268 / Fold change vs veh, ZNF268 / Fold change vs veh, ZNF507 / RFU, DGCR2 / Fold change vs veh, DGCR2 / RFU, WDSUB1 / Fold change vs veh, WDSUB1 / Fold change vs veh, HSP90B1 /// MIR3652 / RFU, ADSS / Fold change vs veh, ADSS / RFU, GK / Fold change vs veh, GK / RFU, ZNF148 / Fold change vs veh, ZNF148 / RFU, TAF9 / Fold change vs veh, TAF9 / RFU, SLC1A5 / Fold change vs veh, SLC1A5 / RFU, SLMO2 / Fold change vs veh, SLMO2 / RFU, ABCC4 / Fold change vs veh, ABCC4 / RFU, LOC101060439 /// RAP1B / Fold change vs veh, LOC101060439 /// RAP1B / RFU, RFX7 / Fold change vs veh, RFX7 / RFU, GTPBP10 / Fold change vs veh, GTPBP10 / RFU, CNEP1R1 / Fold change vs veh, CNEP1R1 / RFU, BIVM-ERCC5 /// ERCC5 / Fold change vs veh, BIVM-ERCC5 /// ERCC5 / RFU, ILF3 / Fold change vs veh, ILF3 / RFU 11762660_at / Fold change /veh 11762660_at / RFU VCAN (11757783_s_at) / Fold change /veh VCAN (11757783_s_at) / RFU DDX43 (11728927_at) / Fold change /veh DDX43 (11728927_at) / RFU KRT8 (11758188_x_at) / Fold change /veh KRT8 (11758188_x_at) / RFU NKD1 (11759106_at) / Fold change /veh NKD1 (11759106_at) / RFU SRD5A1 (11742802_a_at) / Fold change /veh SRD5A1 (11742802_a_at) / RFU TPSAB1 /// TPSB2 (11721975_s_at) / Fold change /veh TPSAB1 /// TPSB2 (11721975_s_at) / RFU GSTM3 (11746129_a_at) / Fold change /veh GSTM3 (11746129_a_at) / RFU IL23R (11737362_x_at) / Fold change /veh IL23R (11737362_x_at) / RFU TMEM51 (11727254_a_at) / Fold change /veh TMEM51 (11727254_a_at) / RFU PIWIL2 (11732686_x_at) / Fold change /veh PIWIL2 (11732686_x_at) / RFU ORM1 (11744905_x_at) / Fold change /veh ORM1 (11744905_x_at) / RFU CCDC152 (11743942_at) / Fold change /veh CCDC152 (11743942_at) / RFU ECM1 (11717891_a_at) / Fold change /veh ECM1 (11717891_a_at) / RFU IL23R (11748794_a_at) / Fold change /veh IL23R (11748794_a_at) / RFU TNFAIP8L3 (11732012_x_at) / Fold change /veh TNFAIP8L3 (11732012_x_at) / RFU MBOAT4 (11741988_at) / Fold change /veh MBOAT4 (11741988_at) / RFU 11764193_at / Fold change /veh 11764193_at / RFU TMEM53 (11763286_at) / Fold change /veh TMEM53 (11763286_at) / RFU MAGEB2 (11727129_at) / Fold change /veh MAGEB2 (11727129_at) / RFU TMEM200A (11744735_a_at) / Fold change /veh TMEM200A (11744735_a_at) / RFU CCDC152 (11751479_a_at) / Fold change /veh CCDC152 (11751479_a_at) / RFU FAM211A (11726209_a_at) / Fold change /veh FAM211A (11726209_a_at) / RFU RGS16 (11746705_a_at) / Fold change /veh RGS16 (11746705_a_at) / RFU VCAN (11755009_s_at) / Fold change /veh VCAN (11755009_s_at) / RFU RHOB (11743442_s_at) / Fold change /veh RHOB (11743442_s_at) / RFU RGS16 (11720943_a_at) / Fold change /veh RGS16 (11720943_a_at) / RFU RGS16 (11720944_at) / Fold change /veh RGS16 (11720944_at) / RFU, VPS4B / Fold change vs veh, VPS4B / RFU, CREB1 / Fold change vs veh, CREB1 / RFU, DNAJC13 / Fold change vs veh, DNAJC13 / RFU, GNAQ / Fold change vs veh, GNAQ / RFU, CDK5R1 / Fold change vs veh, CDK5R1 / RFU, ZRANB3 / Fold change vs veh, ZRANB3 / RFU, CUL4A / Fold change vs veh, CUL4A / RFU, CCNY / Fold change vs veh, CCNY / RFU, UFL1 / Fold change vs veh, UFL1 / RFU, COG3 / Fold change vs veh, COG3 / RFU, DIAPH2 / Fold change vs veh, DIAPH2 / RFU, SKA2 / Fold change vs veh, SKA2 / RFU, AFF3 / Fold change vs veh, AFF3 / RFU, LMF1 / Fold change vs veh, LMF1 / RFU, IPO11 / Fold change vs veh, IPO11 / RFU, DFFB / Fold change vs veh, DFFB / RFU, FOXP1 / Fold change vs veh, FOXP1 / RFU, CARD8 / Fold change vs veh, CARD8 / RFU, STRN3 / Fold change vs veh, STRN3 / RFU, ADK / Fold change vs veh, ADK / RFU, RASSF2 / Fold change vs veh, RASSF2 / RFU, WIPF1 / Fold change vs veh, WIPF1 / RFU, LARP1B / Fold change vs veh, LARP1B / RFU, RASA1 / Fold change vs veh, RASA1 / RFU, RB1 / Fold change vs veh, RB1 / RFU, PPFIA1 / Fold change vs veh, PPFIA1 / RFU, MAT2A / Fold change vs veh, MAT2A / RFU, CCT5 / Fold change vs veh, CCT5 / RFU, WDR92 / Fold change vs veh, WDR92 / RFU, CUX1 / Fold change vs veh, CUX1 / RFU, TTC7A / Fold change vs veh, TTC7A / RFU, TMEM135 / Fold change vs veh, TMEM135 / RFU, DEPTOR / Fold change vs veh, DEPTOR / RFU, CPM / Fold change vs veh, CPM / RFU, DNAJB6 / Fold change vs veh, DNAJB6 / RFU, CACNA2D3 / Fold change vs veh, CACNA2D3 / RFU, DTX4 / Fold change vs veh, DTX4 / RFU, TFCP2 / Fold change vs veh, TFCP2 / RFU, GMCL1 /// GMCL1P1 / Fold change vs veh, GMCL1 /// GMCL1P1 / RFU, AEBP2 / Fold change vs veh, AEBP2 / RFU, SNHG1 /// SNORD22 /// SNORD25 /// SNORD26 /// SNORD27 /// SNORD28 /// SNORD29 /// SNORD31 / Fold change vs veh, SNHG1 /// SNORD22 /// SNORD25 /// SNORD26 /// SNORD27 /// SNORD28 /// SNORD29 /// SNORD31 / Fold change (Aza/veh), C12orf56 (ProbeSet 11735607_a_at) / Fold change (ACY-1035/veh), C12orf56 (ProbeSet 11735607_a_at) / Fold change (Aza/veh), FGFR1OP (ProbeSet 11751329_s_at) / Fold change (ACY-1035/veh), FGFR1OP (ProbeSet 11751329_s_at) / Fold change (Aza/veh), VPS36 (ProbeSet 11739960_a_at) / Fold change (ACY-1035/veh), VPS36 (ProbeSet 11739960_a_at) / RFU SYPL1 (11715823_x_at) / Fold change /veh SYPL1 (11715823_x_at) / RFU IGFBP7 (11715501_s_at) / Fold change /veh IGFBP7 (11715501_s_at) / RFU REEP3 (11722064_at) / Fold change /veh REEP3 (11722064_at) / RFU IGLL1 (11728026_x_at) / Fold change /veh IGLL1 (11728026_x_at): dose or concentration left out as unconfirmed", "conditions": "MV-4-11 cells, 48 hours", "data": [{"smiles": "Nc1ncn([C@@H]2O[C@H](CO)[C@@H](O)[C@H]2O)c(=O)n1", "note": "[azacitidine]", "values": [{"measurement": "RFU 11764098_at", "result": 18.12, "unit": "RFU"}]}]}
